This is an account of results in EP3301096A1, “BIS-INDOLE DERIVATIVES FOR USE IN THE TREATMENT OF BACTERIAL INFECTIONS” (Heinrich Heine Universität Düsseldorf, priority 2016, dated 2018).

The subject of one test is M. tuberculosis H37Rv. The test can be described thus: MIC determination, resazurin microplate assay. The format is cell-based. As to conditions: Mycobacterium tuberculosis, 120 h, five days, range 100-0.78 µM. A general note: Alamar Blue is a resazurin reagent that responds to reducing activity.
Test [1] deals with nosocomial pathogens and Mycobacterium tuberculosis. The test can be described thus: MIC determination, statements across the tested strains. In kind it is cell-based. Particulars: for activity against the tested strains: tested concentration range 100-0.78 µM.
A further test concerns S. aureus ATCC 25923. The test can be described thus: MIC by broth microdilution method (CLSI). Particulars: Staphylococcus aureus, ATCC25923, 24 h. In general terms: In broth dilution the organism is exposed to a series of concentrations in liquid medium.
Another test deals with MRSA ATCC 700699. The test can be described thus: MIC by broth microdilution method (CLSI). As to conditions: Staphylococcus aureus, 24 h.
The next test has as its system E. faecalis ATCC 29212. The test can be described thus: MIC by broth microdilution method (CLSI). Particulars: Enterococcus faecalis, ATCC29212, 24 h.
In another test the test system is E. faecalis ATCC 51299. The test can be described thus: MIC by broth microdilution method (CLSI). Particulars: Enterococcus faecalis, ATCC51299, 24 h.
In another test the test system is E. faecium ATCC 35667. The test can be described thus: MIC by broth microdilution method (CLSI). As to conditions: Enterococcus faecium, ATCC35667, 24 h.
The test system of test [2] is VR E. faecium ATCC 700221. The test can be described thus: MIC by broth microdilution method (CLSI). Particulars: Enterococcus faecium, ATCC700221, 24 h.
Experimental: (§2) The compounds were tested for their antibacterial activities against the pathogenic nosocomial strains of Staphylococcus aureus, Enterococcus faecalis Enterococcus faecium, Acinetobacter baumannii. The minimal inhibitory concentration (MIC) was determined by the broth microdilution method according to the recommendations of the Clinical and Laboratory Standards Institute (CLSI) (CLSI M7-A9, 2012). For preparation of the inoculum the growth method was used. Bacterial cells were grown aerobically in Muller Hinton (MH) medium at 37°C and 180 rpm. A preculture was grown until log phase (OD600 nm ∼ 0.5) and then seeded at 5 x 10^4 bacteria/well in a total volume of 100 µL in 96 well round bottom microtiter plates and incubated with serially diluted test substances at a concentration range of 100-0.78 µM. The compounds were screened in two-fold serial dilution. Microplates were incubated aerobically at 37°C for 24 h. MICs were determined by identifying the minimum concentration of the compounds that led to complete inhibition of visual growth of the bacteria.
Test [3] deals with methicillin-resistant Staphylococcus aureus. The test can be described thus: MIC quantified via the BacTiter-Glo assay. The format is cell-based. Particulars: methicillin-resistant strain; 24 h. Here is the method: (§1) The MICs of compounds according to formulas (2), (3), (4), (7), (11), (12) and (18) were additionally quantified via the BacTiter-Glo™ assay (Promega, Madison, WI, USA). Briefly, after an incubation time of 24 h, each well was resuspended by pipetting, and 50 µL aliquots were transferred into an opaque-walled multiwell plate. Additionally, control wells containing medium without cells to determine background luminescence were prepared. 50 µL BacTiter-Glo™ reagent were added to each well. Contents were mixed and incubated for five minutes at room temperature. Luminescence was measured using a microplate reader. Growth was calculated relative to the background luminescence (0% growth) and a compound-free DMSO control (100% growth).

In test [4] the test system is methicillin-sensitive Staphylococcus aureus. The test can be described thus: MIC quantified via the BacTiter-Glo assay. The format is cell-based. As to conditions: methicillin-sensitive strain; 24 h. Here is the method:
as §1

In general, MIC refers to the lowest concentration that inhibits growth of the organism.

Molecules are shown by their SMILES.

Experimental for E. faecalis ATCC 29212: as §2
Experimental for E. faecalis ATCC 51299: as §2
Experimental for E. faecium ATCC 35667: as §2
Experimental for MRSA ATCC 700699: as §2
Experimental for S. aureus ATCC 25923: as §2

With `Fc1ccc2[nH]cc(-c3cnc(-c4c[nH]c5ccc(F)cc45)cn3)c2c1` [formula (5), 2,5-bis(5-fluoro-1H-indole-3-yl)pyrazine], the MIC with M. tuberculosis H37Rv, against S. aureus ATCC 25923, against MRSA ATCC 700699, in the test on E. faecalis ATCC 29212, with E. faecalis ATCC 51299 and against E. faecium ATCC 35667 was over 100 µM in each case. The compound further gave a minimal inhibitory concentration (MIC) in [2] of over 100 µM. Further, the “activity against the tested strains” value in test [1] is given as “no activity”.

Consider `Fc1ccc2[nH]cc(-c3cnc(-c4c[nH]c5ccc(F)cc45)nc3)c2c1` [formula (11), 3,3'-(pyrimidine-2,5-diyl)bis(5-fluoro-1H-indole)], for which the MIC in the test with M. tuberculosis H37Rv is over 100 µM; in the test on S. aureus ATCC 25923, 100 µM; against MRSA ATCC 700699, 12.5 µM; in the test with E. faecalis ATCC 29212, 100 µM; in the test with E. faecalis ATCC 51299, 100 µM; in the test with E. faecium ATCC 35667, 50 µM. The MIC in [2] worked out at 50 µM.

`COc1ccc2c(-c3cnc(-c4c[nH]c5cc(OC)ccc45)cn3)c[nH]c2c1` [formula (9), 2,5-bis(6-methoxy-1H-indole-3-yl)pyrazine]: the MIC in the test with M. tuberculosis H37Rv, against S. aureus ATCC 25923, with MRSA ATCC 700699, in the test on E. faecalis ATCC 29212, against E. faecalis ATCC 51299 and against E. faecium ATCC 35667 was over 100 µM in each case. In test [2], this compound displayed a minimum inhibitory concentration (MIC) of over 100 µM. In addition, the “effect against M. tuberculosis, S. aureus and E.faecium” value (from here on “effect against M. tuberculosis”) in test [1] is reported as “did not show any effect”.

Consider `COc1ccc2[nH]cc(-c3cnc(-c4c[nH]c5ccc(OC)cc45)cn3)c2c1` [formula (8), 2,5-bis(5-methoxy-1H-indole-3-yl)pyrazine], for which the MIC against M. tuberculosis H37Rv, with S. aureus ATCC 25923, with MRSA ATCC 700699, in the test on E. faecalis ATCC 29212, in the test on E. faecalis ATCC 51299 and against E. faecium ATCC 35667 was over 100 µM in each case. Also, the MIC in test [2] was over 100 µM. Moreover, the “effect against M. tuberculosis” value in test [1] is “did not show any effect”.

Consider `c1cc(-c2c[nH]c3ccccc23)nc(-c2c[nH]c3ccccc23)c1` [formula (16), 2,6-di(1H-indole-3-yl)pyridine], for which the MIC was over 100 µM in the test with M. tuberculosis H37Rv; over 100 µM against S. aureus ATCC 25923; over 100 µM in the test with MRSA ATCC 700699; 100 µM against E. faecalis ATCC 29212; 100 µM in the test with E. faecalis ATCC 51299; over 100 µM against E. faecium ATCC 35667. This compound also returned a minimum inhibitory concentration (MIC) in test [2] of over 100 µM.

`COc1ccc2[nH]cc(-c3cnc(-c4c[nH]c5ccc(OC)cc45)nc3)c2c1` [formula (14), 3,3'-(pyrimidine-2,5-diyl)bis(5-methoxy-1H-indole)]: the MIC in the test on M. tuberculosis H37Rv was 50 µM; in the test on S. aureus ATCC 25923, over 100 µM; in the test with MRSA ATCC 700699, 50 µM; against E. faecalis ATCC 29212, 50 µM; in the test on E. faecalis ATCC 51299, 100 µM; against E. faecium ATCC 35667 it was 100 µM. In [2], this compound returned an MIC of 50 µM.

Take `c1ccc2c(-c3csc(-c4c[nH]c5ccccc45)n3)c[nH]c2c1` [formula (18), 2,4-di(1H-indole-3-yl)thiazole]: the minimal inhibitory concentration (MIC) was 100 µM against M. tuberculosis H37Rv; 6.25 µM in the test with S. aureus ATCC 25923; 3.12 µM against MRSA ATCC 700699; over 100 µM with E. faecalis ATCC 29212; over 100 µM with E. faecalis ATCC 51299; 6.25 µM in the test with E. faecium ATCC 35667. The compound also yielded a minimum inhibitory concentration (MIC) in test [2] of 6.25 µM. For the same compound, the “inhibition of Staphylococcus aureus (BacTiter-Glo)” value in test [3] and in [4] was “effectively inhibited” each time.

In the case of `c1ccc2c(-c3cc(-c4c[nH]c5ccccc45)ncn3)c[nH]c2c1` [formula (15), 4,6-di(1H-indole-3-yl)pyrimidine], the minimum inhibitory concentration (MIC) in the test with M. tuberculosis H37Rv, with S. aureus ATCC 25923, against MRSA ATCC 700699, in the test with E. faecalis ATCC 29212, with E. faecalis ATCC 51299 and against E. faecium ATCC 35667 was over 100 µM throughout. The compound further returned an MIC in test [2] of over 100 µM.

Regarding `c1ccc2c(-c3cnc(-c4c[nH]c5ccccc45)nc3)c[nH]c2c1` [formula (12), 3,3'-(pyrimidine-2,5-diyl)bis(1H-indole)], the MIC against M. tuberculosis H37Rv was determined as 50 µM; against S. aureus ATCC 25923, 100 µM; against MRSA ATCC 700699, 12.5 µM; against E. faecalis ATCC 29212, 50 µM; against E. faecalis ATCC 51299, 100 µM; against E. faecium ATCC 35667 it was 100 µM. Further, the minimal inhibitory concentration (MIC) in test [2] worked out at 100 µM.

Take `c1ccc2c(-c3cnc(-c4c[nH]c5ccccc45)cn3)c[nH]c2c1` [formula (10), 2,5-bis(1H-indole-3-yl)pyrazine]: the MIC in the test with M. tuberculosis H37Rv was over 100 µM; against S. aureus ATCC 25923, over 100 µM; against MRSA ATCC 700699 it was over 100 µM; against E. faecalis ATCC 29212, 12.5 µM; in the test with E. faecalis ATCC 51299, 25 µM; in the test with E. faecium ATCC 35667, over 100 µM. Also, the minimum inhibitory concentration (MIC) in test [2] was over 100 µM. For the same compound, in test [1], the “effect against M. tuberculosis” value is listed as “did not show any effect”.

`c1ccc2c(-c3ccc(-c4c[nH]c5ccccc45)nn3)c[nH]c2c1` [formula (17), 3,6-Di(1H-indole-3-yl)pyridazine]: the minimal inhibitory concentration (MIC) was over 100 µM in the test with M. tuberculosis H37Rv; over 100 µM against S. aureus ATCC 25923; over 100 µM against MRSA ATCC 700699; 100 µM against E. faecalis ATCC 29212; 100 µM against E. faecalis ATCC 51299; over 100 µM in the test with E. faecium ATCC 35667. The MIC in test [2] was over 100 µM.

Take `Brc1cc2[nH]cc(-c3cnc(-c4c[nH]c5cc(Br)c(Br)cc45)cn3)c2cc1Br` [formula (7), 2,5-bis(5,6-dibromo-1H-indole-3-yl)pyrazine]: the minimal inhibitory concentration (MIC) was over 100 µM in the test on M. tuberculosis H37Rv; 100 µM against S. aureus ATCC 25923; 25 µM with MRSA ATCC 700699; 100 µM in the test on E. faecalis ATCC 29212; over 100 µM in the test on E. faecalis ATCC 51299; 50 µM against E. faecium ATCC 35667. In addition, in test [2], the MIC was found to be 50 µM.

As to `c1cnc2[nH]cc(-c3cnc(-c4c[nH]c5ncccc45)nc3)c2c1` [formula (13), 3,3'-(pyrimidine-2,5-diyl)bis(1H-pyrrolo[2,3-b]pyridine)], the MIC was over 100 µM with M. tuberculosis H37Rv; over 100 µM with S. aureus ATCC 25923; over 100 µM with MRSA ATCC 700699; 100 µM in the test on E. faecalis ATCC 29212; over 100 µM with E. faecalis ATCC 51299; over 100 µM against E. faecium ATCC 35667. In test [2], this compound came in with an MIC of over 100 µM.

For the compound `Brc1ccc2c(-c3cnc(-c4c[nH]c5cc(Br)ccc45)cn3)c[nH]c2c1` [formula (6), 2,5-bis(6-bromo-1H-indole-3-yl)pyrazine], the minimal inhibitory concentration (MIC) against M. tuberculosis H37Rv, against S. aureus ATCC 25923, in the test on MRSA ATCC 700699, with E. faecalis ATCC 29212, against E. faecalis ATCC 51299 and against E. faecium ATCC 35667 was over 100 µM throughout. Besides, the minimum inhibitory concentration (MIC) in test [2] was over 100 µM. Moreover, in test [1], the “activity against the tested strains” value was “no activity could be observed”.
